Test results as given in patent US20250311722A1, “IMPROVED BIOCIDE” (Purgos ApS, priority 2022, published 2025).

Tested on: bacteria
Assay: NBDA in different PVB dispersions at 32° C., ATP analysis (LuminUltra)
Type: cell-based
Parameters: bacteria count 6 mo after adding NBDA / bacteria count 9 mo after adding NBDA / bacteria count 1 d after adding NBDA / bacteria count 1 wk after adding NBDA / bacteria count 1 mo after adding NBDA / bacteria count 3 mo after adding NBDA / bacteria count after 4 mo after addition of NBDA / bacteria count after 6 mo after addition of NBDA: unit not given here
Conditions: 0.5% NBDA; for bacteria count after 4 mo after addition of NBDA / bacteria count after 4 wk after addition of NBDA / bacteria count after 6 mo after addition of NBDA / bacteria count after 8 wk after addition of NBDA / bacteria count after 9 mo after addition of NBDA / bacteria count after 12 mo after addition of NBDA: long term
Procedure: The amines selected from stock samples was made from factory prepared stock and sealed solutions delivered in technical quality (95-99.9%). […] Tertiary amine, water and PVB-dispersion was mechanically stirred in IKA vertical fixed blade stirrer for sampling in 2-5 minutes. Conditions was industrial clean, meaning no special precautions was taken to prevent contamination, except normal cleanliness and between operations dishwashing procedures. Working temperatures was 20-25 degre Celsius, and all incubations was made in thermostatic 32-degree Celsius incubator ovens for bottled flasks and open petri dishes. […] The protocol is provided by LuminUltra Technologies. Basically all tested dispersions are manufactured in same way, with only differences in additives, and the variations of origin/source of the waste material (See Example 1). However the specification of the SharkDispersions-all have same basic composition since the stability of the dispersion forces this. The in situ contamination of the production batches may also vary in handling and different storage methods in flasks, IBC's and tanks. In all production the dispersion before treated with tertiary amine is pasteurized due to the general level of production temperatures +90 degrees for several minutes. The biocidal effectivity of NBDA in different PVB dispersions was measured as explained above.

[1] = PVB dispersion FX2, 32° C., with 0.5% peroxide
[2] = PVB dispersion FX2, 32° C., without peroxide
[3] = PVB dispersion FX6, 32° C., with 0.5% peroxide
[4] = PVB dispersion FX6, 32° C., without peroxide
[5] = PVB dispersion SX, 32° C., with 0.5% peroxide
[6] = PVB dispersion SX, 32° C., without peroxide
[7] = PVB dispersion WX2s, 32° C., with 0.5% peroxide
[8] = PVB dispersion WX2s, 32° C., without peroxide
[9] = PVB dispersion WX, 32° C., with 0.5% peroxide
[10] = PVB dispersion WX, 32° C., without peroxide

SMILES: CCCCN(CCO)CCO [NBDA, N-butyldiethanolamine]
- bacteria count 1 mo after adding NBDA [1]: 22
- bacteria count 1 wk after adding NBDA [1]: 9.9
- bacteria count 3 mo after adding NBDA [1]: 3
- bacteria count 1 d after adding NBDA [1]: 17.6
- bacteria count 1 mo after adding NBDA [2]: 77.1
- bacteria count 1 wk after adding NBDA [2]: 1.8
- bacteria count 3 mo after adding NBDA [2]: 64
- bacteria count 6 mo after adding NBDA [2]: 15.5
- bacteria count 1 d after adding NBDA [2]: 7.7
- bacteria count 1 mo after adding NBDA [3]: 0.93
- bacteria count 1 wk after adding NBDA [3]: 239
- bacteria count 3 mo after adding NBDA [3]: 28
- bacteria count 6 mo after adding NBDA [3]: 62
- bacteria count 9 mo after adding NBDA [3]: 15.4
- bacteria count 1 d after adding NBDA [3]: 31.7
- bacteria count 1 mo after adding NBDA [4]: 0.93
- bacteria count 1 wk after adding NBDA [4]: 25
- bacteria count 3 mo after adding NBDA [4]: 1.4
- bacteria count 6 mo after adding NBDA [4]: 1.1
- bacteria count 9 mo after adding NBDA [4]: 1.51
- bacteria count 1 d after adding NBDA [4]: 48.5
- bacteria count 1 mo after adding NBDA [5]: 24.2
- bacteria count 1 wk after adding NBDA [5]: 48.1
- bacteria count 3 mo after adding NBDA [5]: 54.6
- bacteria count 6 mo after adding NBDA [5]: 53
- bacteria count 9 mo after adding NBDA [5]: 21.9
- bacteria count 1 d after adding NBDA [5]: 24.3
- bacteria count 1 mo after adding NBDA [6]: 19.5
- bacteria count 1 wk after adding NBDA [6]: 42.1
- bacteria count 3 mo after adding NBDA [6]: 26
- bacteria count 6 mo after adding NBDA [6]: 9
- bacteria count 9 mo after adding NBDA [6]: 15.7
- bacteria count 1 d after adding NBDA [6]: 17.2
- bacteria count 1 mo after adding NBDA [7]: 74.9
- bacteria count 1 wk after adding NBDA [7]: 4.5
- bacteria count 3 mo after adding NBDA [7]: 28.9
- bacteria count 6 mo after adding NBDA [7]: 7.8
- bacteria count 1 d after adding NBDA [7]: 29.7
- bacteria count 1 mo after adding NBDA [8]: 25.2
- bacteria count 1 wk after adding NBDA [8]: 7.2
- bacteria count 3 mo after adding NBDA [8]: 13
- bacteria count 6 mo after adding NBDA [8]: 39.9
- bacteria count 1 d after adding NBDA [8]: 17.6
- bacteria count 1 mo after adding NBDA [9]: 83.4
- bacteria count 1 wk after adding NBDA [9]: 79
- bacteria count 3 mo after adding NBDA [9]: 13.3
- bacteria count 6 mo after adding NBDA [9]: 63.8
- bacteria count 9 mo after adding NBDA [9]: 35
- bacteria count 1 d after adding NBDA [9]: 4.2
- bacteria count 1 mo after adding NBDA [10]: 31.6
- bacteria count 1 wk after adding NBDA [10]: 180
- bacteria count 3 mo after adding NBDA [10]: 7.4
- bacteria count 6 mo after adding NBDA [10]: 11.2
- bacteria count 9 mo after adding NBDA [10]: 57.7
- bacteria count 1 d after adding NBDA [10]: 110
- bacteria count after 4 mo after addition of NBDA (PVB dispersion FX1, 32° C.): 10.1
- bacteria count after 4 wk after addition of NBDA (PVB dispersion FX1, 32° C.): 3.7
- bacteria count after 6 mo after addition of NBDA (PVB dispersion FX1, 32° C.): 1
- bacteria count after 8 wk after addition of NBDA (PVB dispersion FX1, 32° C.): 18.5
- bacteria count after 9 mo after addition of NBDA (PVB dispersion FX1, 32° C.): 34
- bacteria count after 12 mo after addition of NBDA (PVB dispersion FX1, 32° C.): 2.3
- bacteria count after 4 mo after addition of NBDA (PVB dispersion FX2, 32° C.): 13.1
- bacteria count after 4 wk after addition of NBDA (PVB dispersion FX2, 32° C.): 12.4
- bacteria count after 6 mo after addition of NBDA (PVB dispersion FX2, 32° C.): 6.9
- bacteria count after 8 wk after addition of NBDA (PVB dispersion FX2, 32° C.): 4.6
- bacteria count after 9 mo after addition of NBDA (PVB dispersion FX2, 32° C.): 67.9
- bacteria count after 12 mo after addition of NBDA (PVB dispersion FX2, 32° C.): 15.6
- bacteria count after 4 mo after addition of NBDA (PVB dispersion FX6, 32° C.): 9.1
- bacteria count after 4 wk after addition of NBDA (PVB dispersion FX6, 32° C.): 64.3
- bacteria count after 6 mo after addition of NBDA (PVB dispersion FX6, 32° C.): 52.1
- bacteria count after 8 wk after addition of NBDA (PVB dispersion FX6, 32° C.): 12.1
- bacteria count after 9 mo after addition of NBDA (PVB dispersion FX6, 32° C.): 7.3
- bacteria count after 12 mo after addition of NBDA (PVB dispersion FX6, 32° C.): 367
- bacteria count after 4 mo after addition of NBDA (PVB dispersion WX1, 32° C.): 8.1
- bacteria count after 4 wk after addition of NBDA (PVB dispersion WX1, 32° C.): 38.4
- bacteria count after 6 mo after addition of NBDA (PVB dispersion WX1, 32° C.): 5
- bacteria count after 8 wk after addition of NBDA (PVB dispersion WX1, 32° C.): 4.6
- bacteria count after 9 mo after addition of NBDA (PVB dispersion WX1, 32° C.): 8.9
- bacteria count after 12 mo after addition of NBDA (PVB dispersion WX1, 32° C.): 16.8
- bacteria count after 4 mo after addition of NBDA (PVB dispersion WX25, 32° C.): 68
- bacteria count after 4 wk after addition of NBDA (PVB dispersion WX25, 32° C.): 94
- bacteria count after 6 mo after addition of NBDA (PVB dispersion WX25, 32° C.): 170
- bacteria count after 8 wk after addition of NBDA (PVB dispersion WX25, 32° C.): 82
- bacteria count after 9 mo after addition of NBDA (PVB dispersion WX25, 32° C.): 238
- bacteria count after 12 mo after addition of NBDA (PVB dispersion WX25, 32° C.): 181
